Reference: patent publication US20140081017A1, “Histone Deacetylase Inhibitors for Enhancing Activity of Antifungal Agents” (METHYLGENE INC., priority 2012, published 2014)
Values after ≈ are worked out from the molar mass of the structure shown. Where two headings read alike, the source gives them in different places.

What was measured:
C. glabrata = test: Checkerboard FIC assay in combination with fluconazole (MIC alone and in combination, FICI); assay type: cell-based, Candida glabrata; details: for FICI of combination resulting in fluconazole MIC of: 2 ug/mL / FICI of combination resulting in fluconazole MIC of: 4 ug/mL / FICI of combination resulting in fluconazole MIC of: 8 ug/mL: FICI calculated using a fluconazole MIC of 16 μg/mL; for FICI of combination resulting in fluconazole MIC of: 2 ug/mL (value in parenthesis) / FICI of combination resulting in fluconazole MIC of: 4 ug/mL (value in parenthesis) / FICI of combination resulting in fluconazole MIC of: 8 ug/mL (value in parenthesis): FICI using a fluconazole MIC of 128 μg/mL; for MIC: Nakaseomyces glabratus; for Multiple of compound MIC to synergize fluconazole MIC to 2 ug/mL / Multiple of compound MIC to synergize fluconazole MIC to 4 ug/mL / Multiple of compound MIC to synergize fluconazole MIC to 8 ug/mL: concentration in combination as multiple of the compound's MIC alone; for Multiple of compound MIC to synergize fluconazole MIC to 2 ug/mL: fluconazole MIC 2 ug/mL; for Multiple of compound MIC to synergize fluconazole MIC to 4 ug/mL: fluconazole MIC 4 ug/mL; for Multiple of compound MIC to synergize fluconazole MIC to 8 ug/mL: fluconazole MIC 8 ug/mL; for Concentration of Methylgene compound to synergize fluconazole MIC to 2 ug/mL / Concentration of Methylgene compound to synergize fluconazole MIC to 4 ug/mL / Concentration of Methylgene compound to synergize fluconazole MIC to 8 ug/mL: in combination with fluconazole; for Concentration of Methylgene compound to synergize fluconazole MIC to 2 ug/mL: fluconazole MIC lowered to 2 ug/mL; for Concentration of Methylgene compound to synergize fluconazole MIC to 4 ug/mL: fluconazole MIC lowered to 4 ug/mL; for Concentration of Methylgene compound to synergize fluconazole MIC to 8 ug/mL: fluconazole MIC lowered to 8 ug/mL
Outline: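 A fluconazole synergy checkerboard was run against C. glabrata in MOPS-buffered RPMI (pH 7.0) for about 48 h at 35 °C. Each agent was diluted 2-fold, with one row and one column holding each agent alone for MIC determination. FICI was calculated from these MICs, using a 0.5 McFarland inoculum diluted 1:100 per CLSI.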

Candida glabrata = test: Minimal Inhibitory Concentration (MIC) assay, broth microdilution per CLSI; assay type: cell-based; details: Nakaseomyces glabratus, read-out: Minimum Inhibitory Concentrations against Yeast Isolates, Candida glabrata;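 also: two read times 24 hr and 48 hr of incubation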
Outline: (§1)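 Read-out is visual: MIC is the lowest compound concentration preventing visible growth after approximately 24-48 hr at 35° C. Testing used CLSI microdilution in MOPS-buffered RPMI (pH 7.0) with serial 1:1 compound dilutions made in DMSO.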

Candida parapsilosis = test: as above; assay type: cell-based; details: Lodderomyces parapsilosis, read-out: Minimum Inhibitory Concentrations against Yeast Isolates, Candida parapsilosis
Outline: as §1

Candida albicans = test: as above; assay type: cell-based; details: Candida albicans, read-out: Minimum Inhibitory Concentrations against Yeast Isolates, Candida albicans
Outline: as §1

[1] = MIC of the example compound alone against C. glabrata in the checkerboard assay, approximately 48 hr, read-out: Methylgene MIC
[2] = test compound alone, C. glabrata, approx. 48 hr at 35° C., read-out: Compound MIC
[3] = 24 hr reading (first value of cell 24 hr/48 hr)
[4] = 48 hr reading (second value of cell 24 hr/48 hr)
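For Minimum Inhibitory Concentrations against Yeast Isolates, Candida albicans in this document: two read times 24 hr and 48 hr of incubation.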
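For Minimum Inhibitory Concentrations against Yeast Isolates, Candida parapsilosis in this document: two read times 24 hr and 48 hr of incubation.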

## O=C(Cc1ccc(CCCCc2ccc(NC(=O)CO)cc2)cc1)NO [Example 36, N-hydroxy-2-(4-(4-(4-(2-hydroxyacetamido)phenyl)butyl)phenyl)acetamide]
C. glabrata; C. glabrata
  FICI of combination resulting in fluconazole MIC of: 2 ug/mL: 0.375
  FICI of combination resulting in fluconazole MIC of: 4 ug/mL: 0.500
  FICI of combination resulting in fluconazole MIC of: 8 ug/mL: 0.625
  FICI of combination resulting in fluconazole MIC of: 2 ug/mL (value in parenthesis): 0.266
  FICI of combination resulting in fluconazole MIC of: 4 ug/mL (value in parenthesis): 0.281
  FICI of combination resulting in fluconazole MIC of: 8 ug/mL (value in parenthesis): 0.188
  Concentration of Methylgene compound to synergize fluconazole MIC to 2 ug/mL: 4 µg/mL
  Concentration of Methylgene compound to synergize fluconazole MIC to 4 ug/mL: 4 µg/mL
  Concentration of Methylgene compound to synergize fluconazole MIC to 8 ug/mL: 2 µg/mL
C. glabrata; [1]
  MIC: 16 µg/mL
C. glabrata; [2]
  MIC: 16 µg/mL
C. glabrata
  Multiple of compound MIC to synergize fluconazole MIC to 2 ug/mL: (¼x)
  Multiple of compound MIC to synergize fluconazole MIC to 4 ug/mL: (¼x)
  Multiple of compound MIC to synergize fluconazole MIC to 8 ug/mL: (⅛x)
Candida glabrata; [3]
  MIC: > 8 µg/mL
Candida glabrata; [4]
  MIC: > 8 µg/mL
Candida parapsilosis; [3]
  MIC: > 8 µg/mL
Candida parapsilosis; [4]
  MIC: > 8 µg/mL
Candida albicans; [3]
  MIC: > 8 µg/mL
Candida albicans; [4]
  MIC: > 8 µg/mL

## CC(C(=O)NO)c1ccc(CCC(O)Cc2ccccc2)cc1 (stereo not drawn) [Example 58, N-hydroxy-2-(4-(3-hydroxy-4-phenylbutyl)phenyl)propanamide]
C. glabrata; C. glabrata
  FICI of combination resulting in fluconazole MIC of: 2 ug/mL: 0.188
  FICI of combination resulting in fluconazole MIC of: 4 ug/mL: 0.250
  FICI of combination resulting in fluconazole MIC of: 8 ug/mL: 0.375
  FICI of combination resulting in fluconazole MIC of: 2 ug/mL (value in parenthesis): 0.141
  FICI of combination resulting in fluconazole MIC of: 4 ug/mL (value in parenthesis): 0.156
  FICI of combination resulting in fluconazole MIC of: 8 ug/mL (value in parenthesis): 0.188
  Concentration of Methylgene compound to synergize fluconazole MIC to 2 ug/mL: 4 µg/mL
  Concentration of Methylgene compound to synergize fluconazole MIC to 4 ug/mL: 4 µg/mL
  Concentration of Methylgene compound to synergize fluconazole MIC to 8 ug/mL: 4 µg/mL
C. glabrata; [1]
  MIC: > 16 µg/mL
C. glabrata; [2]
  MIC: > 16 µg/mL
Candida glabrata; [3]
  MIC: 8 µg/mL (≈ 25.5 µM)
Candida glabrata; [4]
  MIC: 64 µg/mL (≈ 204 µM)
Candida parapsilosis; [3]
  MIC: > 64 µg/mL
Candida parapsilosis; [4]
  MIC: > 64 µg/mL
Candida albicans; [3]
  MIC: > 64 µg/mL
Candida albicans; [4]
  MIC: > 64 µg/mL

## COCCOCCOCCNS(=O)(=O)c1ccc(CCCCc2ccc(CC(=O)NO)cc2)cc1 [Example 12, N-hydroxy-2-(4-(4-(4-(N-(2-(2-(2-methoxyethoxy)ethoxy)ethyl)sulfamoyl)phenyl)butyl)phenyl)acetamide]
C. glabrata; C. glabrata
  FICI of combination resulting in fluconazole MIC of: 2 ug/mL: 0.313
  FICI of combination resulting in fluconazole MIC of: 4 ug/mL: 0.250
  FICI of combination resulting in fluconazole MIC of: 8 ug/mL: 0.375
  FICI of combination resulting in fluconazole MIC of: 2 ug/mL (value in parenthesis): 0.266
  FICI of combination resulting in fluconazole MIC of: 4 ug/mL (value in parenthesis): 0.156
  FICI of combination resulting in fluconazole MIC of: 8 ug/mL (value in parenthesis): 0.188
  Concentration of Methylgene compound to synergize fluconazole MIC to 2 ug/mL: 4 µg/mL
  Concentration of Methylgene compound to synergize fluconazole MIC to 4 ug/mL: 2 µg/mL
  Concentration of Methylgene compound to synergize fluconazole MIC to 8 ug/mL: 2 µg/mL
C. glabrata; [1]
  MIC: 16 µg/mL
C. glabrata; [2]
  MIC: 16 µg/mL
C. glabrata
  Multiple of compound MIC to synergize fluconazole MIC to 2 ug/mL: (¼x)
  Multiple of compound MIC to synergize fluconazole MIC to 4 ug/mL: (⅛x)
  Multiple of compound MIC to synergize fluconazole MIC to 8 ug/mL: (⅛x)
Candida glabrata; [3]
  MIC: 4 µg/mL (≈ 7.86 µM)
Candida glabrata; [4]
  MIC: 16 µg/mL (≈ 31.5 µM)
Candida parapsilosis; [3]
  MIC: > 64 µg/mL
Candida parapsilosis; [4]
  MIC: > 64 µg/mL
Candida albicans; [3]
  MIC: > 64 µg/mL
Candida albicans; [4]
  MIC: > 64 µg/mL
